Measured values: US8937088B2, “Ureas for the treatment and prevention of cancer” (Astar Biotech LLC, priority 2011, dated 2015)
Like-named read-outs stand apart in the source and are kept apart here.

How the values were obtained:
Format in all cases: cell-based
[1] = test system: HUH7 (human hepatoma cell line); test: Cell death detection, trypan blue exclusion assay, HUH7; conditions: Huh-7, 168 h, HUH7, 7-day treatment, read-out: Cell Death (%) at Tested Concentration
Experimental: (§1) Biological Test 2. Cell Death Detection Using Trypan Blue Exclusion Assay.
(§2) After drug treatment, cells were harvested by trypsinization with trypsin/EDTA for 10 min at 37° C. As some apoptotic cells detached from the culture substratum into the medium, these cells were also collected by centrifugation of the medium at 1,200 rpm for 5 min. The pooled cell pellets were resuspended and mixed with trypan blue dye. After Trypan blue stain was done, cells were counted by using a light microscope and a hemocytometer. Blue dye-incorporating cells were scored as being dead. Five hundred cells from randomly chosen fields were counted, and the number of dead cells was counted and expressed as a percentage of the total number of cells counted as shown in Tables 2 to 8 below.

[2] = test system: LNCaP (human prostate adenocarcinoma cell line); test: Cell death detection, trypan blue exclusion assay, LNCaP; conditions: read-out: Cell Death (%) at Tested Concentration
Experimental: as §1, §2

[3] = test system: HUH7 (human hepatoma cell line); test: Cell death detection, trypan blue exclusion assay, HUH7, in combination with AZD-6244; conditions: HUH7, 6-day treatment; for Cell Death (%) in combination with AZD-6244: compound 0.5 μM
Experimental: as §1, §2

[4] = test system: Hep3B (human hepatoma cell line); test: Cell death detection, trypan blue exclusion assay, Hep3B; conditions: 5-day treatment
Experimental: as §1, §2

[5] = test system: HepG2 (human Hepatocellular carcinoma cell line); test: Cell death detection, trypan blue exclusion assay, HepG2; conditions: HepG2, 5-day treatment
Experimental: as §1, §2

[6] = test system: HT29 (human colon adenocarcinoma cell line); test: Cell death detection, trypan blue exclusion assay, HT29; conditions: HT29, 5-day treatment
Experimental: as §1, §2

Row | Structure (SMILES) | cytotoxicity at 1 µM [1] | cytotoxicity at 2.5 µM [1] | cytotoxicity at 5 µM [1] | cytotoxicity at 7.5 µM [1] | cytotoxicity at 10 µM [1] | cytotoxicity at 1 µM ([2]; 72 h, 3-day treatment) | cytotoxicity at 2.5 µM ([2]; 72 h, 3-day treatment) | cytotoxicity at 5 µM ([2]; 72 h, 3-day treatment) | cytotoxicity at 7.5 µM ([2]; 72 h, 3-day treatment) | cytotoxicity at 10 µM ([2]; 72 h, 3-day treatment) | cytotoxicity at 1 µM ([2]; 168 h, 7-day treatment) | cytotoxicity at 2.5 µM ([2]; 168 h, 7-day treatment) | cytotoxicity at 5 µM ([2]; 168 h, 7-day treatment) | cytotoxicity at 7.5 µM ([2]; 168 h, 7-day treatment) | cytotoxicity at 10 µM ([2]; 168 h, 7-day treatment) | also measured
1 | CNC(=O)c1cc(Oc2ccc(NC(=O)Nc3cc(S(F)(F)(F)(F)F)ccc3Cl)cc2)ccn1 [Example 5, 4-[4-({[2-chloro-5-(pentafluoro-λ^6-sulfanyl)phenyl]carbamoyl}amino)phenoxy]-N-methylpyridine-2-carboxamide] | 1.7% | 3.1% | 4.3% | 17.2% | 19.8% | 1% | 1.5% | 1.4% | 2.1% | 7.6% | 1.8% | 1.9% | 2.3% | 4.6% | 14.7% | 
2 | Cn1cnc2c(F)c(Nc3ccc(Br)cc3Cl)c(C(=O)NOCCO)cc21 [AZD-6244, reference compound] |  |  |  |  |  |  |  |  |  |  |  |  |  |  |  | Cell Death (%), AZD-6244 alone ([3]; AZD-6244 0.5 μM, no other compound (0)): 2.3%
3 | CNC(=O)c1cc(Oc2ccc(NC(=O)Nc3cc(S(F)(F)(F)(F)F)ccc3Cl)c(F)c2)ccn1 [Example 6, 4-[4-({[2-chloro-5-(pentafluoro-λ^6-sulfanyl)phenyl]carbamoyl}amino)-3-fluorophenoxy]-N-methylpyridine-2-carboxamide] | 2% | 2.2% | 7.4% | 32.1% | 35.4% | 1.1% | 1.3% | 1.2% | 3.6% | 4.3% | 1.7% | 1.9% | 2.4% | 4.8% | 13.4% | Cell Death (%) at Tested Concentration ([4]; 0.25 uM): 3.9%; Cell Death (%) at Tested Concentration ([4]; 3.0 uM): 38.4%; Cell Death (%) at Tested Concentration ([4]; 5.0 uM): 89.6%; Cell Death (%) at Tested Concentration ([5]; 0.25 uM): 2.6%; Cell Death (%) at Tested Concentration ([5]; 3.0 uM): 90.7%; Cell Death (%) at Tested Concentration ([5]; 5.0 uM): 99%; Cell Death (%) at Tested Concentration ([6]; 2.5 uM): 11.7%; Cell Death (%) at Tested Concentration ([6]; 5.0 uM): 13.4%; Cell Death (%) at Tested Concentration ([6]; 10 uM): 22.1%; Cell Death (%) in combination with AZD-6244 ([3]; AZD-6244 0 μM): 2.1%; Cell Death (%) in combination with AZD-6244 ([3]; AZD-6244 0.5 μM): 99%
